# From patent publication US8039670B2, “Analogs of alpha galactosyceramide and uses thereof” (Ludwig Institute for Cancer Research, priority 2005, dated 2011)
# Tests used:
# human CD1d molecules = biological target: T1, human CD1d molecules (Homo sapiens, UniProt P15813); assay: Dissociation of ligand from hCD1d, surface plasmon resonance with 9B Fab; assay type: binding; details: fold faster than α-GalCer
# T1 construct: soluble human CD1d molecules; biotin (biotinylated); made in house
# Description: FIG. 1 Comparison of dissociation rate of OCH and α-GalCer. Dissociation of ligand from hCD1d. The indicated hCD1d (α-Gal Cer or OCH) complex was loaded onto a Surface Plasmon resonance (Biacore) sensor surface at t=0 and the amount of hCD1d remaining at the indicated time point measured using the Fab 9B.
# Using the 9B Fab we looked at the rate of dissociation of all the tested compounds from soluble human CD1d molecules using surface plasmon resonance. Biotinylated CD1d-lipid complexes were immobilized to streptavidin-coated chips and the level of binding of the 9B Fab was measured over time. The loss of binding of the antibody over time was used to determine the rate of lipid dissociation from CD1d molecules.
# human DC = assay: DC maturation in co-culture of human DC and iNKT cells (flow cytometry CD83, CD86, CD38); assay type: cell-based; details: titration on DC, 48 h
# Method: Different analogs of α-GalCer as indicated or LPS were added to co-cultures of human DC and iNKT cells. (A) Maturation of the DC was assessed after 40 h, gating on CD11c positive cells. Histograms indicate the CD83 and CD86 profiles of DC from different treatments; the percentages indicate the percentage of CD83hi mature DC and the numbers in parenthesis, the mean fluorescence intensity of the population contained within the labeled gate. DC and iNKT cells were co-cultured in the presence of different analogs of α-GalCer for 24 hours. Supernatants were analyzed using ELISA for the presence of (B) IL-12p40 released by the DC and (C) IFN-γ from the iNKT cells. […] Cells were co-cultured in the presence of the indicated concentration of analog and the percentages of DC with increased CD83/CD80 are shown. […] Viability of α-GalCer or analog-pulsed DC was assessed after 40 h co-culture in the presence of iNKT cells by flow cytometry. Cells were stained with propidium iodide and the percentage of live CD11c gated cells remaining in the culture are shown.
# Human monocyte-derived DC were pulsed with 150 ng of different inositol analogs and co-cultured with iNKT cells for 24 h. […] Numbers indicate the mean fluorescence intensity of the histogram gated on CD11c^+ cells.
# Immature human DC were cultured in the presence of a human iNKT cell clone with or without analogs or vehicle at different concentrations.
# (§1) To compare the functions of high affinity α-GalCer, intermediate affinity threitolceramide with the known, low affinity analog OCH, the three compounds were titrated onto DC and used to present to iNKT cells. Maturation of DC and DC viability were examined after 48 h.
# DC = assay: Viability of analog-pulsed DC co-cultured with iNKT cells (propidium iodide); assay type: cell-based, human; details: at concentration of maximal DC maturation
# Method: Different analogs of α-GalCer as indicated or LPS were added to co-cultures of human DC and iNKT cells. (A) Maturation of the DC was assessed after 40 h, gating on CD11c positive cells. Histograms indicate the CD83 and CD86 profiles of DC from different treatments; the percentages indicate the percentage of CD83hi mature DC and the numbers in parenthesis, the mean fluorescence intensity of the population contained within the labeled gate. DC and iNKT cells were co-cultured in the presence of different analogs of α-GalCer for 24 hours. Supernatants were analyzed using ELISA for the presence of (B) IL-12p40 released by the DC and (C) IFN-γ from the iNKT cells. All the compounds tested induced weaker but significant cytokine production than α-GalCer, with the exception of arabinitolceramide. (D) Titration of α-GalCer, OCH or threitolceramide on DCs and co-culture with iNKT cells induces DC maturation in vitro. Cells were co-cultured in the presence of the indicated concentration of analog and the percentages of DC with increased CD83/CD80 are shown. […] Viability of α-GalCer or analog-pulsed DC was assessed after 40 h co-culture in the presence of iNKT cells by flow cytometry. Cells were stained with propidium iodide and the percentage of live CD11c gated cells remaining in the culture are shown.
# as §1
# T1 sequence (P15813 20-301 limits assumed): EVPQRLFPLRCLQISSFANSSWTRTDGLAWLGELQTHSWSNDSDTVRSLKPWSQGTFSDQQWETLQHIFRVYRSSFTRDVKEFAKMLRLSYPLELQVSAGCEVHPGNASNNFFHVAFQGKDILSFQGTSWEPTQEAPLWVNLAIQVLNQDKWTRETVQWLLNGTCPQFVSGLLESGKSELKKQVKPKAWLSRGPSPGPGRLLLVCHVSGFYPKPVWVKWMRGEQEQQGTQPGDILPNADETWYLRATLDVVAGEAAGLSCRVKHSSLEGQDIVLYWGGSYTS
# T1 sequence (P61769 21-119 partner): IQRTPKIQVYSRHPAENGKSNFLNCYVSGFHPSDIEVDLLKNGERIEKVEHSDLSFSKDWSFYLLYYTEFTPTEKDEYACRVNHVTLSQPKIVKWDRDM
structure (smiles),measurement,setting,value
"CCCCCCCCCCCCCCCCCCCCCCCC(=O)N[C@@H](CO[C@H]1O[C@H](CO)[C@H](O)[C@H](O)[C@H]1O)[C@H](O)[C@H](O)CCCCC [OCH, (2S,3S,4R)-1-O-(α-D-galactopyranosyl)-N-tetracosanoyl-2-amino-1,3,4-nonanetriol]",rate of dissociation from hCD1d relative to α-GalCer,human CD1d molecules,3.9 fold
same,concentration inducing maximal DC maturation,human DC,67 ng/mL
same,DC viability (propidium iodide negative) compared with α-GalCer,DC,significantly greater proportion of DC were propidium iodide negative
